PubChem BioAssay AID743319 (Broad Institute, 2014)
Calls of active or inactive are those of the source.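 Rule for the calls: active = fitted curve reaches 200% activation at or below the highest valid dose tested for that compound; inconclusive = flat fit between 30 and 70% activation, or unreliable fit; inactive = the rest.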

target: Endoplasmic reticulum aminopeptidase 2 (Homo sapiens) (UniProt Q6P179); assay: enhanced ERAP2 Arg-AMC hydrolysis – biochemical, fluorescence plate reader, cherry-picked samples, selectivity assay for selective ERAP1 modulator project, dose response (AID 743319); details: recombinant ERAP2, Arg-AMC cleavage fluorescence, 1 h
Sequence (Q6P179 whole entry, looked up): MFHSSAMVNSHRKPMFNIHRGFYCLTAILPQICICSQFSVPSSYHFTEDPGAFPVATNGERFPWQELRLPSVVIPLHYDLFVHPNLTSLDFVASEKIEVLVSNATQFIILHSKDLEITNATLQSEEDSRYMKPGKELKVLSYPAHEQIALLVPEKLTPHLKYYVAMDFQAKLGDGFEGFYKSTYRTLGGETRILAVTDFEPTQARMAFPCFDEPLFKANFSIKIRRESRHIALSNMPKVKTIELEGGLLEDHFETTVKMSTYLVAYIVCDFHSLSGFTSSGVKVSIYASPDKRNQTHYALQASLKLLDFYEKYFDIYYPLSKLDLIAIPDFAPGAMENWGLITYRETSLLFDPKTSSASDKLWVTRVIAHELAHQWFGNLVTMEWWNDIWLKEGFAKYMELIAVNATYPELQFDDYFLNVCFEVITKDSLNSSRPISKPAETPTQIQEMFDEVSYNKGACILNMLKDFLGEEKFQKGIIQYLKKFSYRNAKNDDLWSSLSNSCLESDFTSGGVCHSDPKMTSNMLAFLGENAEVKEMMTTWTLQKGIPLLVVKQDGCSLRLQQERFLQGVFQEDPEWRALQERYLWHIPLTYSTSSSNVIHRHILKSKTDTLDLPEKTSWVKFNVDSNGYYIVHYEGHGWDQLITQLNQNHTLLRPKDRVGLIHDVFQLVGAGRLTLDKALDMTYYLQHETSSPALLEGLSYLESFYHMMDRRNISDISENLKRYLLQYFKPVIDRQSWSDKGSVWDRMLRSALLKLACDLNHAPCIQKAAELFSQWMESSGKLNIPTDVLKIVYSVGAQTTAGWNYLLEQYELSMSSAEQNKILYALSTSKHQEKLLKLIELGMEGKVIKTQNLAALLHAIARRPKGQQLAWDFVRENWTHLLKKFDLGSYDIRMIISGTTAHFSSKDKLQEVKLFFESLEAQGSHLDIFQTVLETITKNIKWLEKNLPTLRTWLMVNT

`C[C@@H]1CCCCO[C@@H](CN(C)C(=O)CCC(F)(F)F)[C@@H](C)CN([C@@H](C)CO)C(=O)c2cc(NS(=O)(=O)c3ccc(Cl)cc3)ccc2O1` was tested. Which AC200 did it give?
The AC200 was > 10000 nM (inactive).

How did the AC200 turn out when `O=c1oc2cc(O)ccc2cc1S(=O)(=O)c1ccccc1` was run?
The AC200 was 592 nM.

With `O=c1cc(CN2CCOCC2)c2cc(Cl)c(O)cc2o1` as the compound, how does the AC200 read?
The AC200 was 2510 nM.

Which AC200 does the source give for `CCN(CC)c1ccc2c(C)c(Cl)c(=O)oc2c1` here?
Its AC200 is 1420 nM.

`CCc1cc(=O)oc2c(CNCc3c(F)cccc3Cl)c(O)ccc12` was tested. Which AC200 did it give?
Its AC200 is 1870 nM.

`CCNC(=O)[C@@H]1[C@@H](CO)[C@@H]2Cn3c(ccc(/C=C/c4ccccc4)c3=O)[C@H]1N2C(=O)C1CCCC1` was tested. Which AC200 did it give?
Its AC200 is 1590 nM.

How did the AC200 turn out when `COc1ccc(-c2cc3ccc(O)cc3oc2=O)cc1` was run?
Its AC200 is 775 nM.

`CCN1CCN(Cc2c(O)ccc3c(C)cc(=O)oc23)CC1` was tested. Which AC200 did it give?
Its AC200 is 3230 nM.

With `CCc1c(C)c2cc(Cl)c(O)c(CN(C)C)c2oc1=O` as the compound, how does the AC200 read?
Its AC200 is 803 nM.

Which AC200 does the source give for `CCCc1cc(=O)oc2c(CN(CC)CC)c(O)c(Cl)cc12` here?
The AC200 was 1330 nM.

For `Cc1c(C)c2ccc(O)c(CN3CCCC3)c2oc1=O`, which AC200 is on record?
Its AC200 is 2100 nM.

With `Cc1cc(=O)oc2cc(OCC(=O)N3CCN(C(C)c4ccccc4)CC3)c(Cl)cc12` (stereo not given) as the compound, how does the AC200 read?
Its AC200 is 3960 nM.

How did the AC200 turn out when `O=c1ccc2cc(O[C@@H]3O[C@@H](CO)[C@H](O)[C@@H](O)[C@@H]3O)c(O)cc2o1` was run?
The AC200 was 744 nM.

For `COCC(=O)N1[C@@H]2Cn3c(ccc(/C=C/c4ccccc4)c3=O)[C@H]1[C@@H](C(=O)N1CCOCC1)[C@@H]2CO`, which AC200 is on record?
Its AC200 is 1550 nM.

With `COc1cc2cc(C(=O)N3CCN(Cc4ccc5c(c4)OCO5)CC3)c(=O)oc2cc1OC` as the compound, how does the AC200 read?
Its AC200 is > 5600 nM (inactive).

`O=S(=O)(O)c1ccc(N2N=C(c3ccccc3)CC2c2ccccc2)cc1` (stereo not given) was tested. Which AC200 did it give?
The AC200 was 2050 nM.

How did the AC200 turn out when `CC1CN(Cc2cc(=O)oc3cc(O)c(Cl)cc23)CC(C)O1` (stereo not given) was run?
The AC200 was 2520 nM.

For `COCCCn1c(C(=O)N2CCOCC2)cc2c(=O)n3ccccc3nc21`, which AC200 is on record?
Its AC200 is 6360 nM.

For `C/C(=N\NC(=O)CC#N)c1cc2ccc(O)cc2oc1=O`, which AC200 is on record?
Its AC200 is 2300 nM.

For `COCC(=O)N1[C@@H]2c3ccc(/C=C/c4ccccc4)c(=O)n3C[C@H]1[C@H](CO)[C@H]2C(=O)N1CCOCC1`, which AC200 is on record?
The AC200 was 1500 nM.

Which AC200 does the source give for `COc1cc2ccc(=O)oc2cc1O` here?
Its AC200 is 678 nM.

`Cc1cc(=O)oc2c(CN3CCCCC3)c(O)ccc12` was tested. Which AC200 did it give?
Its AC200 is 1920 nM.

Which AC200 does the source give for `O=c1ccc2cc(O)c(O)cc2o1` here?
Its AC200 is 3270 nM.

For `CCCN1[C@@H]2Cn3c(ccc(/C=C/c4ccccc4)c3=O)[C@H]1[C@@H](C(=O)NCc1ccccn1)[C@@H]2CO`, which AC200 is on record?
Its AC200 is 2260 nM.

With `Cc1c(CC(=O)N2CCN(C(=O)C3COc4ccccc4O3)CC2)c(=O)oc2cc(O)c(Cl)cc12` (stereo not given) as the compound, how does the AC200 read?
Its AC200 is 1520 nM.

How did the AC200 turn out when `CCC(=O)N1[C@@H]2c3ccc(/C=C/c4ccccc4)c(=O)n3C[C@H]1[C@H](CO)[C@H]2C(=O)N(C)C` was run?
The AC200 was 1690 nM.

Which AC200 does the source give for `COC(=O)Cc1c(C)c2ccc(O)c(CNCc3ccc(OC)c(OC)c3)c2oc1=O` here?
Its AC200 is 1010 nM.

same assay, conditions: recombinant ERAP2, Arg-AMC cleavage fluorescence, 1 h; at 2.6 µM (top of the series)

With `C[C@@H]1CCCCO[C@@H](CN(C)C(=O)CCC(F)(F)F)[C@@H](C)CN([C@@H](C)CO)C(=O)c2cc(NS(=O)(=O)c3ccccc3)ccc2O1` as the compound, how does the activation read?
Its activation is 14.4% (inactive).

same assay, conditions: recombinant ERAP2, Arg-AMC cleavage fluorescence, 1 h; at 5.6 µM (top of the series)

Which activation does the source give for `C[C@@H]1CCCCO[C@@H](CN(C)Cc2ccc3c(c2)OCO3)[C@@H](C)CN([C@@H](C)CO)C(=O)c2cc(NS(=O)(=O)c3ccccc3)ccc2O1` here?
Its activation is 12.7% (inactive).

same assay, conditions: recombinant ERAP2, Arg-AMC cleavage fluorescence, 1 h; at 8 µM (top of the series)

How did the activation turn out when `CCCN(C)C[C@@H]1OCCCC[C@@H](C)Oc2ccc(NS(=O)(=O)c3ccc(OC)cc3)cc2C(=O)N([C@H](C)CO)C[C@@H]1C` was run?
The activation was 15.1% (inactive).

same assay, conditions: recombinant ERAP2, Arg-AMC cleavage fluorescence, 1 h; at 10 µM (top of the series)

`CCCN(C)C[C@@H]1OCCCC[C@@H](C)Oc2ccc(NS(=O)(=O)c3c(C)noc3C)cc2C(=O)N([C@H](C)CO)C[C@@H]1C` was tested. Which activation did it give?
Its activation is -3.16% (inactive).

With `C[C@@H]1CCCCO[C@@H](CN(C)C)[C@H](C)CN([C@@H](C)CO)C(=O)c2cc(NC(=O)Nc3ccc(C(F)(F)F)cc3)ccc2O1` as the compound, how does the activation read?
The activation was 14.3% (inactive).

`Cc1noc(C)c1S(=O)(=O)Nc1ccc2c(c1)C(=O)N([C@H](C)CO)C[C@H](C)[C@H](CN(C)Cc1ccc3c(c1)OCO3)OCCCC[C@@H](C)O2` was tested. Which activation did it give?
The activation was 11.2% (inactive).

For `CCCN(C)C[C@@H]1OCCCC[C@@H](C)Oc2ccc(NS(=O)(=O)c3ccc(C)cc3)cc2C(=O)N([C@H](C)CO)C[C@@H]1C`, which activation is on record?
Its activation is 6.04% (inactive).

same assay, conditions: recombinant ERAP2, Arg-AMC cleavage fluorescence, 1 h; at 11 µM (top of the series)

Which activation does the source give for `N#Cc1c(N2CCNCC2)nc(-c2ccco2)c2c1CCCC2` here?
Its activation is 31.3% (inactive).
